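Test compounds were applied to cells in 96-well plates for 48 hours at 5 doses. GI50 is the concentration that inhibits growth by half.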 Calls of active or inactive are those of the source. Cut-off read from the data, not from the text of the source: active = GI50 up to about 1.1 µM and inactive = higher.
Legend:
Test in all cases: growth of human tumour cells (NCI), 48 h
[1] = tested on: CAKI-1
[2] = tested on: SK-OV-3
[3] = tested on: K562
[4] = tested on: U-251
[5] = tested on: LOX IMVI
[6] = tested on: UACC-257
[7] = tested on: SK-MEL-2
[8] = tested on: RXF 393
[9] = tested on: OVCAR-4
[10] = tested on: Malme-3M
[11] = tested on: SW-620
[12] = tested on: SF-539
[13] = tested on: HCT-15
[14] = tested on: SK-MEL-5
[15] = tested on: MCF7
[16] = tested on: RPMI-8226
[17] = tested on: IGROV-1
[18] = tested on: SNB-75
[19] = tested on: TK-10
[20] = tested on: MDA-MB-231

SMILES | GI50 [1] | GI50 [2] | GI50 [3] | GI50 [4] | GI50 [5] | GI50 [6] | GI50 [7] | GI50 [8] | GI50 [9] | GI50 [10] | GI50 [11] | GI50 [12] | GI50 [13] [µM] | GI50 [14] | GI50 [15] | GI50 [16] | GI50 [17] | GI50 [18] | GI50 [19] | GI50 [20]
CN(CCO)/N=N/c1n[nH]cc1C(N)=O | > 100 µM (inactive) | > 100 µM (inactive) | > 100 µM (inactive) | > 100 µM (inactive) | > 100 µM (inactive) | > 100 µM (inactive) | > 100 µM (inactive) | > 100 µM (inactive) | > 100 µM (inactive) | > 100 µM (inactive) | > 100 µM (inactive) | > 100 µM (inactive) | > 100 | > 100 µM (inactive) | > 100 µM (inactive) | > 100 µM (inactive) | > 100 µM (inactive) | > 100 µM (inactive) |  | 
CCCNC(=S)N/C=C1/C(=O)C=C(C)OC1=O | > 100 µM (inactive) | > 100 µM (inactive) |  | > 100 µM (inactive) | > 100 µM (inactive) | > 100 µM (inactive) | > 100 µM (inactive) |  | > 100 µM (inactive) |  | > 100 µM (inactive) | > 100 µM (inactive) | > 100 | > 100 µM (inactive) | > 100 µM (inactive) |  | > 100 µM (inactive) | > 100 µM (inactive) | 26.7 µM (inactive) | > 100 µM (inactive)
O=[N+]([O-])c1cccc2c1[nH]c1c(-c3ccccc3)nccc12 |  | 2.01 µM (inactive) | 1.99 µM (inactive) | 2.51 µM (inactive) | 2.73 µM (inactive) | 1.94 µM (inactive) | 1.07 µM (active) | 2.54 µM (inactive) | 2.02 µM (inactive) | 2.24 µM (inactive) | 3.41 µM (inactive) | 3.19 µM (inactive) | 2.61 | 1.53 µM (inactive) | 2.33 µM (inactive) | 1.46 µM (inactive) | 1.8 µM (inactive) | 2.4 µM (inactive) |  | 
CC(C)N(C(=O)C12C3C4C5(C#N)C3C1(C#N)C5C42I)C(C)C (stereo unspecified) | > 100 µM (inactive) | > 100 µM (inactive) | > 42.2 µM (inactive) | > 100 µM (inactive) | > 49.5 µM (inactive) | > 100 µM (inactive) | > 100 µM (inactive) | > 100 µM (inactive) | > 100 µM (inactive) | > 100 µM (inactive) | > 41.4 µM (inactive) | > 100 µM (inactive) | > 78.5 | > 100 µM (inactive) |  | > 46.1 µM (inactive) | > 100 µM (inactive) | > 59 µM (inactive) | > 100 µM (inactive) | 
CC(/C=C/C(=O)c1sc(-n2nc(-c3ccccc3)cc2-c2ccccc2)nc1C)=C\c1ccccc1 | 20.7 µM (inactive) | 38.4 µM (inactive) | 19.9 µM (inactive) | 65.2 µM (inactive) | 71.9 µM (inactive) | 47.1 µM (inactive) | 34.3 µM (inactive) | > 10 µM (inactive) | 7.43 µM (inactive) | 35.8 µM (inactive) | > 10 µM (inactive) | 52.1 µM (inactive) | 19.2 | 15.5 µM (inactive) |  | 19.3 µM (inactive) | 98.4 µM (inactive) | 2.02 µM (inactive) | > 10 µM (inactive) | 
COCC1OC(OC2OCC3OC4(OCC(O)(C(C)OC)C5OCOC54)OC3C2OC)C(OC)C(O)C1OC1OC(C)C(OC)C(OC2OC(C)C3OC4(CC(O)C(OC5CC(OC6CC(C)([N+](=O)[O-])C(OC)C(C)O6)C(OC(=O)c6c(C)c(Cl)c(O)c(Cl)c6OC)C(C)O5)C(C)O4)OC3(C)C2O)C1O (stereo unspecified) | > 100 µM (inactive) | > 100 µM (inactive) | > 100 µM (inactive) | > 100 µM (inactive) | > 100 µM (inactive) | > 100 µM (inactive) | > 100 µM (inactive) | > 100 µM (inactive) | > 100 µM (inactive) |  | > 100 µM (inactive) | > 100 µM (inactive) | > 100 | > 100 µM (inactive) |  | > 100 µM (inactive) | > 100 µM (inactive) | > 100 µM (inactive) | > 100 µM (inactive) | > 100 µM (inactive)
COc1ccc(/C=C(\C#N)c2ccccn2)cc1OC | 60.7 µM (inactive) | 29.8 µM (inactive) | 85.5 µM (inactive) | 16.3 µM (inactive) |  | > 100 µM (inactive) | 51.2 µM (inactive) | 23.7 µM (inactive) | 73.1 µM (inactive) | 46.8 µM (inactive) | 56.1 µM (inactive) | 31.9 µM (inactive) | 32.2 | 25.1 µM (inactive) | 17.9 µM (inactive) | 45.7 µM (inactive) | 51.2 µM (inactive) | 21.3 µM (inactive) | 63.7 µM (inactive) | 
O=C(O)CCCNS(=O)(=O)c1ccc2ccccc2c1 | > 100 µM (inactive) | > 100 µM (inactive) | > 100 µM (inactive) | > 100 µM (inactive) | > 100 µM (inactive) | > 100 µM (inactive) | > 100 µM (inactive) | > 100 µM (inactive) | > 100 µM (inactive) | > 100 µM (inactive) | > 100 µM (inactive) | > 100 µM (inactive) | > 100 | > 100 µM (inactive) |  | > 100 µM (inactive) | > 100 µM (inactive) | > 100 µM (inactive) | > 100 µM (inactive) | 
CC1OC(OC2CC(O)(C(=O)CO)Cc3c(O)c4c(c(O)c32)C(=O)c2ccccc2C4=O)CC(N)C1O (stereo unspecified) | < 0.01 µM (active) | 0.0109 µM (active) | < 0.0118 µM (active) | < 0.01 µM (active) | < 0.01 µM (active) | 0.054 µM (active) | 0.0387 µM (active) | 0.0162 µM (active) | 0.0813 µM (active) | < 0.01 µM (active) | < 0.01 µM (active) | < 0.0112 µM (active) | 0.0708 | < 0.0105 µM (active) |  | < 0.01 µM (active) | 0.12 µM (active) | < 0.0137 µM (active) | 0.0559 µM (active) | 0.431 µM (active)
OCC#CCNCl |  | > 100 µM (inactive) | > 100 µM (inactive) | > 100 µM (inactive) | > 100 µM (inactive) | > 73.6 µM (inactive) | > 100 µM (inactive) | > 100 µM (inactive) | > 100 µM (inactive) | > 100 µM (inactive) | > 100 µM (inactive) | > 100 µM (inactive) | > 100 | > 100 µM (inactive) | > 100 µM (inactive) | > 100 µM (inactive) | > 100 µM (inactive) | > 100 µM (inactive) |  | 
COc1cc([C@@H]2c3cc4c(cc3[C@@H](OC3OC5COC(C)OC5C(O)C3O)[C@H]3COC(=O)[C@H]23)OCO4)cc(OC)c1O (stereo partly specified) | 4.2 µM (inactive) | 17.2 µM (inactive) |  | 3.3 µM (inactive) | 2.74 µM (inactive) | 37.2 µM (inactive) | 21.7 µM (inactive) | 14.9 µM (inactive) | 113 µM (inactive) | 9.44 µM (inactive) | 6.71 µM (inactive) | 3.27 µM (inactive) | 17.6 | 5.48 µM (inactive) |  |  | 31.4 µM (inactive) | 12.1 µM (inactive) |  | 1.7 µM (inactive)
c1c[nH]c(-c2ccc(-c3ccc[nH]3)c3nsnc23)c1 | > 66.7 µM (inactive) | > 68.1 µM (inactive) | > 26.8 µM (inactive) | 42.1 µM (inactive) | > 100 µM (inactive) | > 61 µM (inactive) | 44.3 µM (inactive) |  | 0.612 µM (active) |  | > 52.4 µM (inactive) | > 56.9 µM (inactive) | 0.245 | > 42.9 µM (inactive) | 0.0877 µM (active) | > 27.4 µM (inactive) | 20.3 µM (inactive) | 2.65 µM (inactive) | 0.182 µM (active) | 
CN1CC(c2ccccc2)C(O)(C2(c3ccccc3)CN(C)CC(c3ccccc3)C2=O)C(c2ccccc2)C1 (stereo unspecified) | > 100 µM (inactive) |  | > 100 µM (inactive) | > 100 µM (inactive) | > 100 µM (inactive) | > 100 µM (inactive) | > 100 µM (inactive) |  | > 100 µM (inactive) |  | > 100 µM (inactive) | > 100 µM (inactive) | > 100 | > 100 µM (inactive) | > 100 µM (inactive) | > 100 µM (inactive) | > 100 µM (inactive) |  | > 100 µM (inactive) | > 100 µM (inactive)
CC1=C(/C=C/C(C)=C/C=C/C(C)=C/CO)C(C)(C)CCC1 [RETINOL] | 42 µM (inactive) | 35.2 µM (inactive) | 26.5 µM (inactive) | 21.2 µM (inactive) | 24.6 µM (inactive) | 27.6 µM (inactive) | 20.7 µM (inactive) | 12.4 µM (inactive) | 37.7 µM (inactive) | 11.1 µM (inactive) | 19.4 µM (inactive) | 14.1 µM (inactive) | 30.6 | 17.1 µM (inactive) |  |  | 29.2 µM (inactive) | 0.0279 µM (active) |  | 29 µM (inactive)
CCc1c2c(nc3ccc(O)cc13)-c1cc3c(c(=O)n1C2)COC(=O)[C@]3(O)CC [7-ETHYL-10-HYDROXYCAMPTOTHECIN] | < 0.001 µM (active) |  |  | < 0.001 µM (active) | < 0.001 µM (active) | 0.013 µM (active) | 0.0231 µM (active) |  | 0.00227 µM (active) |  |  | < 0.001 µM (active) | 0.00711 |  | 0.01 µM (active) | 0.236 µM (active) |  |  | 0.0933 µM (active) | 0.00344 µM (active)
NS(=O)(=O)c1cc(S(N)(=O)=O)c(NC(=O)N(c2ccccc2)c2ccccc2)c(Cl)c1Cl | 21.4 µM (inactive) | 24 µM (inactive) | 20.1 µM (inactive) | 24.3 µM (inactive) | 12.5 µM (inactive) | 10.4 µM (inactive) | 22.6 µM (inactive) |  | 27.4 µM (inactive) |  | 29.9 µM (inactive) |  | 20.3 | 14.1 µM (inactive) | 35 µM (inactive) | 15.3 µM (inactive) | 8.13 µM (inactive) |  | 32.7 µM (inactive) | 33 µM (inactive)

From ChEMBL document CHEMBL1201862, “PubChem BioAssay data set” (2004)
